According to patent publication US20230331767A1, “TARGETED STEROID COMPOUNDS” (priority 2020, published 2023):

Assays:
[1] = tested on: F4/80 (mouse macrophage), CD4 (T helper cell), CD8 (cytotoxic T cell), and Ly6G (neutrophil) cells; experiment: Thioglycollate-induced peritonitis, flow cytometry of peritoneal lavage cells; assay type: in vivo, BALB/C or Swiss Webster mice; conditions: treated group vs the untreated or vehicle, peritoneal cavity; for percentage of F4/80 macrophages: 10 nmol I.V. 48 hrs after induction stated for Compound 107
Description: Induced peritonitis with 1.5 mL 3% thioglycollate injected I.P. into either BALB/C or Swiss Webster mice maintained on a folate free diet for at least three weeks and treated with 10 nmol Compound 107 injected I.V. 48 hrs after induction. After an additional 48 hrs the mice were euthanized, and peritoneal lavage was performed using 2% fetal bovine serum (FBS) in phosphate buffered saline (PBS). Cells were passed through a 70 µm cell filter to remove debris then counted using a hemocytometer. Approximately 1 million cells pre-incubated in anti-CD16/32 (to block endogenous Fc receptor binding) for one hour on ice in 100 µL of 2% FBS in PBS. Then the cells incubated with at least one of the following fluorescently labeled antibodies for cell surface markers: PE-F4/80 or PE/Cy7-F4/80 (mouse macrophage), FITC-CD4 (T helper cell), eFluor780-CD8 (cytotoxic T cell), and PerCP/Cy5.5-Ly6G (neutrophil) according to the manufacturers recommended procedure on ice for 1 hour. Cells were washed twice with 1 mL of ice cold 2% FBS in PBS then suspended in 2% FBS in PBS. Controls included unstained cells as the negative control as well as the use of 1 drop of compensation beads per dye-antibody (1 µL) for a positive control incubated for 1 hour on ice and washed twice with 1 mL 2% FBS in PBS. All samples were centrifuged at 400xg for 10 min between washes, transfers and after incubation to remove supernatant.
Samples and appropriate controls were analyzed on an Attune NxT Acoustic Focusing Cytometer collecting between 10,000 and 30,000 events per sample utilizing laser lines BL1-A, BL2-A, BL3-A, and YL4-A for FITC-CD4, PE-F4/80, PerCP/Cy5.5-Ly6G and eFluor780-CD8 or PE/Cy7-F4/80, respectively. Flow cytometry data analysis involved first observing the cells run in the experiment using forward and side-scattering light (FSC and SSC, respectively). All observed cells were gated (R1) and analyzed for relative abundance of F4/80 (mouse macrophage), CD4 (T helper cell), CD8 (cytotoxic T cell), and Ly6G (neutrophil) cells within the population. Values from quadrant gating based on negative controls were then represented in bar graph form.

colon = conditions: 10nmols i.v. on days 3 and 4; 2.5% DSS for 6 days; treated vs untreated colon, day 6
Description: 8-12 week old C57BL/6 mice were maintained on a folate free diet for at least three week dextran sodium sulfate (DSS) was added to their drinking water at a final concentration of 2.5% for 6 days. […] On day 6 the mice were euthanized by CO2 affixation followed by cervical dislocation. Then the colons were excised and prepared for histology as described previously (J Vis Exp. 2012; (60): 3678.). Briefly, the colons were cut out and the fecal contents were gently removed and washed in PBS. The colons were fixed in 10% buffered formalin for 24 hrs followed by transfer to 70% ethanol. These samples were submitted to the Purdue Veterinary Pathology lab where they were embedded in paraffin, sectioned, and stained with hematoxylin and eosin.

macrophage [2] = experiment: Flow cytometry of thioglycolate-elicited peritoneal macrophages gated on F4/80, CD 206 expression (M2 marker); assay type: cell-based, ND4 mice; conditions: 20 nanomolar; targeted group vs competition group (plus 100-fold excess folate-glucosamine); macrophage gated on F4/80
Description: (§1) FIG. 6 is an example of compound 101 in flow cytometry of macrophage gated on F4/80 to show CD 206 expression (a marker for M2, anti-inflammatory macrophages). Briefly, 1.5 mL of 3% thioglycolate were injected into the intraperitoneal cavity of 12-week-old ND4 mice. Three days later the macrophages were isolated by intraperitoneal lavage and plated in a 12-well dish and incubated at 37° C./5% CO2. After 24 hours, the media was replaced with media containing 20 nanomolar the compound in FIGS. 1 or 20 nanomolar of the compound in FIG. 1 plus 100-fold excess folate-glucosamine (to show receptor-specific binding) or untreated control or 10 nanomolar free dexamethasone (to show the effect of the free drug) and allowed to incubate at 37° C./5% CO2 for the allotted time. Then 3 days later the cells were detached and incubated with the corresponding fluorescently labeled antibodies for 1 hour at 4° C. in 1% fetal bovine serum (FBS) in phosphate- buffered saline (PBS). The samples were then washed 3 times with ice-cold 1% FBS in PBS before being analyzed by flow cytometry.

macrophage [3] = experiment: Flow cytometry of macrophage, CD 86 expression (M1 marker); assay type: cell-based, ND4 mice; conditions: 20 nanomolar compound, with or without folate-glucosamine competition; treatment for 24 hours
Description: as §1, with “After 24 hours, the media was replaced with media containing 20 nanomolar the compound in FIGS.” left out, “Then 3 days later the cells were detached and incubated with the corresponding fluorescently labeled antibodies for 1 hour at 4° C. in 1% fetal bovine serum (FBS) in phosphate- buffered saline (PBS).” left out
FIG. 8 is an example of Compound 101 in flow cytometry of macrophage to show CD 86 expression with controls.

Molecule	percentage of FITC-CD4 (T helper cell) [1]	percentage of PerCP/Cy5.5-Ly6G (neutrophil) [1]	percentage of eFluor780-CD8 (cytotoxic T cell) [1]	percentage of F4/80 macrophages [1]	crypt architecture (colon histology) (colon)	infiltrating immune cells (colon histology) (colon)	number of goblet cells (colon histology) (colon)	CD 206 expression (marker for M2, anti-inflammatory macrophages) (macrophage [2])	CD 86 expression (marker for M1, pro-inflammatory macrophages) (macrophage [3])
Folate-AlbuminBinder-PEG2-Hydrolink-DimethylCysteine-Carbamate-Dexamethasone [Compound 107]	lower	lower	lower	lower	more crypt architecture	fewer infiltrating immune cells	higher number of goblet cells	–	–
Folate-PEG2-Hydrolink-DimethylCysteine-Carbamate-Dexamethasone [Compound 106]	–	–	–	lower	–	–	–	–	–
Folate-PEG12(CH2)-Pyrophosphate-Dexamethasone [Compound 108]	lower	lower	lower	lower	–	–	–	–	–
C[C@H]1C[C@@H]2[C@H]3CCC4=CC(=O)C=C[C@@]4(C)[C@]3(F)[C@H](O)C[C@@]2(C)[C@]1(O)C(=O)COC(=O)NCCSSC(C)(C)C(NC(=O)c1ccc(NCc2cnc3nc(N)[nH]c(=O)c3n2)cc1)C(=O)O (some centres unmarked) [Compound 101, Folate-Hydrolink-Cysteine-Carbonate-Dexamethasone]	–	–	–	–	–	–	–	Increased expression of CD 206 in the targeted group over the competition group	no observable differences
